In patent publication US6737383B1, “Herbicidal oxadiazolidines” (priority 1999, dated 2004):

Columns and labels:
bedstraw = assay: Test B pre/postemergence bedstraw; format: in vivo, Galium aparine; conditions: Preemergence; for Bedstraw plant response rating: scale of 0 to 10 where 0 is no effect and 10 is complete control
Procedure, shortened: (§1)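 Response is a visual 0-to-10 score relative to untreated plants, where 0 means no effect and 10 means complete control, taken twelve to sixteen days after application. Treatments went onto soil at planting and onto foliage of 1- to 4-leaf plants, using a surfactant-containing non-phytotoxic solvent.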

blackgrass = assay: Test B pre/postemergence blackgrass; format: in vivo, Alopecurus myosuroides; conditions: for Blackgrass plant response rating: scale of 0 to 10 where 0 is no effect and 10 is complete control
Procedure, shortened: as §1

surinam grass = assay: Test B pre/postemergence surinam grass; format: in vivo, Brachiaria decumbens; conditions: for B. signalgrass plant response rating: scale of 0 to 10 where 0 is no effect and 10 is complete control
Procedure, shortened: as §1

corn = assay: Test B pre/postemergence corn; format: in vivo, Zea mays; conditions: for Corn plant response rating: scale of 0 to 10 where 0 is no effect and 10 is complete control
Procedure, shortened: as §1

crabgrass = assay: Test B pre/postemergence crabgrass; format: in vivo, Digitaria sanguinalis; conditions: for Crabgrass plant response rating: scale of 0 to 10 where 0 is no effect and 10 is complete control
Procedure, shortened: as §1

pigweed = assay: Test B pre/postemergence pigweed; format: in vivo, Amaranthus retroflexus; conditions: for Redroot pigweed plant response rating: scale of 0 to 10 where 0 is no effect and 10 is complete control
Procedure, shortened: as §1

rape = assay: Test B pre/postemergence rape; format: in vivo, Brassica napus; conditions: for Rape plant response rating: scale of 0 to 10 where 0 is no effect and 10 is complete control
Procedure, shortened: as §1

soybean = assay: Test B pre/postemergence soybean; format: in vivo, Glycine max; conditions: for Soybean plant response rating: scale of 0 to 10 where 0 is no effect and 10 is complete control
Procedure, shortened: as §1

sugar beet = assay: Test B pre/postemergence sugar beet; format: in vivo, Beta vulgaris; conditions: for Sugarbeets plant response rating: scale of 0 to 10 where 0 is no effect and 10 is complete control
Procedure, shortened: as §1

velvetleaf = assay: Test B pre/postemergence velvetleaf; format: in vivo, Abutilon theophrasti; conditions: for Velvetleaf plant response rating: scale of 0 to 10 where 0 is no effect and 10 is complete control
Procedure, shortened: as §1

wheat = assay: Test B pre/postemergence wheat; format: in vivo, Triticum aestivum; conditions: for Wheat plant response rating: scale of 0 to 10 where 0 is no effect and 10 is complete control
Procedure, shortened: as §1

wild oat = assay: Test B pre/postemergence wild oat; format: in vivo, Avena fatua; conditions: for Wild oats plant response rating: scale of 0 to 10 where 0 is no effect and 10 is complete control
Procedure, shortened: as §1

purple nutsedge = assay: Test B pre/postemergence purple nutsedge; format: in vivo, Cyperus rotundus; conditions: for Nutsedge plant response rating: scale of 0 to 10 where 0 is no effect and 10 is complete control
Procedure, shortened: as §1

rice = assay: Test B flood test rice; format: in vivo, Oryza sativa; conditions: Pre-emergence
Procedure, shortened: (§2)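 Each value is a visual injury score relative to controls, with 10 meaning complete control and 0 no effect. Evaluation took place twelve to sixteen days after the 2-leaf-stage plants were treated and kept in the greenhouse.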

smallflower flatsedge = assay: Test B flood test smallflower flatsedge; format: in vivo, Cyperus difformis; conditions: Pre-emergence
Procedure, shortened: as §2

duck salad = assay: Test B flood test duck salad; format: in vivo, Heteranthera limosa; conditions: Pre-emergence
Procedure, shortened: as §2

[1] = Postemergence, Rate 125 g/ha, scale 0 to 10, 0 is no effect, 10 is complete control
[2] = Postemergence, Rate 250 g/ha, scale 0 to 10, 0 is no effect, 10 is complete control
[3] = Preemergence, Rate 62 g/ha, scale 0 to 10 (0 no effect, 10 complete control)
[4] = Rate 500 g/ha, Postemergence, scale 0 to 10, 0 no effect, 10 complete control
[5] = Rate 62 g/ha, flood test species, visual evaluation after twelve to sixteen days
[6] = Rate 125 g/ha, flood test species, scale 0 to 10 where 0 is no effect and 10 is complete control
[7] = Rate 250 g/ha, flood-test species, scale 0 to 10, 0 is no effect, 10 is complete control
[8] = Rate 500 g/ha, flood test species, scale 0 to 10 (0 no effect, 10 complete control)

CC(C)N(C(=O)n1oc(=O)n(C(C)CCl)c1=O)c1ccc(F)cc1 (stereo not shown) [Compound 367]
Plant response rating, Bedstraw (bedstraw; Rate 62 g/ha, scale 0 to 10 (0 no effect, 10 complete control)): 10 | Bedstraw plant response rating (0 to 10 scale) (bedstraw; Rate 125 g/ha): 10 | Bedstraw plant response rating (bedstraw; Rate 250 g/ha): 10 | Bedstraw plant response rating (bedstraw; Rate 500 g/ha): 10 | Plant response rating, Blackgrass (blackgrass; [1]): 0 | Plant response rating, Blackgrass (blackgrass; [2]): 0 | Plant response rating, Blackgrass (blackgrass; [3]): 2 | Blackgrass plant response rating (0 to 10 scale) (blackgrass; Preemergence, Rate 125 g/ha): 7 | Blackgrass plant response rating (blackgrass; Preemergence, Rate 250 g/ha): 8 | Blackgrass plant response rating (blackgrass; Preemergence, Rate 500 g/ha): 10 | Blackgrass plant response rating (blackgrass; Rate 62 g/ha, Postemergence): 0 | Plant response rating, Blackgrass (blackgrass; [4]): 8 | Plant response rating, B. signalgrass (surinam grass; [1]): 0 | Plant response rating, B. signalgrass (surinam grass; [2]): 0 | Plant response rating, B. signalgrass (surinam grass; [3]): 0 | B. signalgrass plant response rating (0 to 10 scale, 0 is no effect, 10 is complete control) (surinam grass; Preemergence, Rate 125 g/ha): 0 | B. signalgrass plant response rating (surinam grass; Preemergence, Rate 250 g/ha): 4 | B. signalgrass plant response rating (surinam grass; Preemergence, Rate 500 g/ha): 5 | B. signalgrass plant response rating (surinam grass; Rate 62 g/ha, Postemergence): 0 | Plant response rating, B. signalgrass (surinam grass; [4]): 4 | Plant response rating, Corn (corn; [1]): 0 | Plant response rating, Corn (corn; [2]): 0 | Plant response rating, Corn (corn; [3]): 0 | Corn plant response rating (0 to 10 scale) (corn; Preemergence, Rate 125 g/ha): 0 | Corn plant response rating (corn; Preemergence, Rate 250 g/ha): 2 | Corn plant response rating (corn; Preemergence, Rate 500 g/ha): 5 | Corn plant response rating (corn; Rate 62 g/ha, Postemergence): 0 | Plant response rating, Corn (corn; [4]): 0 | Plant response rating, Crabgrass (crabgrass; [1]): 2 | Plant response rating, Crabgrass (crabgrass; [2]): 8 | Plant response rating, Crabgrass (crabgrass; [3]): 6 | Crabgrass plant response rating (0 to 10 scale) (crabgrass; Preemergence, Rate 125 g/ha): 9 | Crabgrass plant response rating (crabgrass; Preemergence, Rate 250 g/ha): 10 | Crabgrass plant response rating (crabgrass; Preemergence, Rate 500 g/ha): 10 | Crabgrass plant response rating (crabgrass; Rate 62 g/ha, Postemergence): 0 | Plant response rating, Crabgrass (crabgrass; [4]): 8 | Plant response rating, Redroot pigweed (pigweed; [1]): 0 | Plant response rating, Redroot pigweed (pigweed; [2]): 0 | Plant response rating, Redroot pigweed (pigweed; [3]): 10 | Redroot pigweed plant response rating (0 to 10 scale) (pigweed; Preemergence, Rate 125 g/ha): 10 | Redroot pigweed plant response rating (pigweed; Preemergence, Rate 250 g/ha): 10 | Redroot pigweed plant response rating (pigweed; Preemergence, Rate 500 g/ha): 10 | Redroot pigweed plant response rating (pigweed; Rate 62 g/ha, Postemergence): 0 | Plant response rating, Redroot pigweed (pigweed; [4]): 7 | Plant response rating, Rape (rape; [1]): 0 | Plant response rating, Rape (rape; [2]): 0 | Plant response rating, Rape (rape; [3]): 0 | Rape plant response rating (0 to 10 scale) (rape; Preemergence, Rate 125 g/ha): 3 | Rape plant response rating (rape; Preemergence, Rate 250 g/ha): 5 | Rape plant response rating (rape; Preemergence, Rate 500 g/ha): 10 | Rape plant response rating (rape; Rate 62 g/ha, Postemergence): 0 | Plant response rating, Rape (rape; [4]): 4 | Plant response rating, Soybean (soybean; [1]): 1 | Plant response rating, Soybean (soybean; [2]): 1 | Plant response rating, Soybean (soybean; [3]): 0 | Soybean plant response rating (0 to 10 scale) (soybean; Preemergence, Rate 125 g/ha): 0 | Soybean plant response rating (soybean; Preemergence, Rate 250 g/ha): 0 | Soybean plant response rating (soybean; Preemergence, Rate 500 g/ha): 0 | Soybean plant response rating (soybean; Rate 62 g/ha, Postemergence): 0 | Plant response rating, Soybean (soybean; [4]): 2 | Plant response rating, Sugarbeets (sugar beet; [1]): 0 | Plant response rating, Sugarbeets (sugar beet; [2]): 0 | Plant response rating, Sugarbeets (sugar beet; [3]): 2 | Sugarbeets plant response rating (0 to 10 scale) (sugar beet; Preemergence, Rate 125 g/ha): 4 | Sugarbeets plant response rating (sugar beet; Preemergence, Rate 250 g/ha): 7 | Sugarbeets plant response rating (sugar beet; Preemergence, Rate 500 g/ha): 9 | Sugarbeets plant response rating (sugar beet; Rate 62 g/ha, Postemergence): 0 | Plant response rating, Sugarbeets (sugar beet; [4]): 7 | Plant response rating, Velvetleaf (velvetleaf; [1]): 2 | Plant response rating, Velvetleaf (velvetleaf; [2]): 2 | Plant response rating, Velvetleaf (velvetleaf; [3]): 3 | Velvetleaf plant response rating (0 to 10 scale) (velvetleaf; Preemergence, Rate 125 g/ha): 3 | Velvetleaf plant response rating (velvetleaf; Preemergence, Rate 250 g/ha): 5 | Velvetleaf plant response rating (velvetleaf; Preemergence, Rate 500 g/ha): 6 | Velvetleaf plant response rating (velvetleaf; Rate 62 g/ha, Postemergence): 0 | Plant response rating, Velvetleaf (velvetleaf; [4]): 3 | Plant response rating, Wheat (wheat; [1]): 0 | Plant response rating, Wheat (wheat; [2]): 0 | Plant response rating, Wheat (wheat; [3]): 0 | Wheat plant response rating (0 to 10 scale) (wheat; Preemergence, Rate 125 g/ha): 0 | Wheat plant response rating (wheat; Preemergence, Rate 250 g/ha): 0 | Wheat plant response rating (wheat; Preemergence, Rate 500 g/ha): 0 | Wheat plant response rating (wheat; Rate 62 g/ha, Postemergence): 0 | Plant response rating, Wheat (wheat; [4]): 6 | Plant response rating, Wild oats (wild oat; [1]): 0 | Plant response rating, Wild oats (wild oat; [2]): 0 | Plant response rating, Wild oats (wild oat; [3]): 0 | Wild oats plant response rating (0 to 10 scale) (wild oat; Preemergence, Rate 125 g/ha): 3 | Wild oats plant response rating (wild oat; Preemergence, Rate 250 g/ha): 3 | Wild oats plant response rating (wild oat; Preemergence, Rate 500 g/ha): 7 | Wild oats plant response rating (wild oat; Rate 62 g/ha, Postemergence): 0 | Plant response rating, Wild oats (wild oat; [4]): 8 | Plant response rating, Nutsedge (purple nutsedge; [1]): 0 | Plant response rating, Nutsedge (purple nutsedge; [2]): 0 | Plant response rating, Nutsedge (purple nutsedge; [3]): 0 | Nutsedge plant response rating (0 to 10 scale) (purple nutsedge; Preemergence, Rate 125 g/ha): 0 | Nutsedge plant response rating (purple nutsedge; Preemergence, Rate 250 g/ha): 0 | Nutsedge plant response rating (purple nutsedge; Preemergence, Rate 500 g/ha): 0 | Nutsedge plant response rating (purple nutsedge; Rate 62 g/ha, Postemergence): 0 | Plant response rating, Nutsedge (purple nutsedge; [4]): 3 | Plant response rating, Rice (0 to 10 scale, 0 is no effect, 10 is complete control) (rice; [5]): 0 | Rice plant response rating (rice; [6]): 0 | Rice plant response rating (rice; [7]): 0 | Rice plant response rating (rice; [8]): 0 | Plant response rating, S. Flatsedge (0 to 10 scale, 0 is no effect, 10 is complete control) (smallflower flatsedge; [5]): 0 | S. Flatsedge plant response rating (smallflower flatsedge; [6]): 0 | S. Flatsedge plant response rating (smallflower flatsedge; [7]): 0 | S. Flatsedge plant response rating (smallflower flatsedge; [8]): 0 | Plant response rating, Ducksalad (0 to 10 scale, 0 is no effect, 10 is complete control) (duck salad; [5]): 0 | Ducksalad plant response rating (duck salad; [6]): 0 | Ducksalad plant response rating (duck salad; [7]): 0 | Ducksalad plant response rating (duck salad; [8]): 0
